Active and inactive are the calls of the source. No cut-off for these calls is given here.
How the values were obtained:
[1] = Chemical stability of compound at pH 4.0 after 24 hrs; assay type: physicochemical; settings: buffer, pH 4, 24 h
[2] = Chemical stability of compound at pH 7.4 after 24 hrs; assay type: physicochemical; settings: buffer, pH 7.4, 24 h
A549 = test: Cytotoxicity against human A549 cells after 72 hrs by MTT assay; assay type: functional, cell-based; settings: A549, 72 h
KB = test: Cytotoxicity against human KB cells after 72 hrs by MTT assay; assay type: functional, cell-based
LNCaP = test: Cytotoxicity against human LNCAP cells after 72 hrs by MTT assay; assay type: functional, cell-based
[3] = Cytotoxicity against human LNZ308 cells after 72 hrs by MTT assay; assay type: functional, cell-based; settings: LNZ308, 72 h
[4] = Cytotoxicity against human Me300 cells after 72 hrs by MTT assay; assay type: functional, cell-based; settings: Me300, 72 h
OVCAR = test: Cytotoxicity against human OVCAR cells after 72 hrs by MTT assay; assay type: functional, cell-based
LN-18 [5] = test: Inhibition of DNA synthesis in human LN18 cells assessed as inhibition of tritiated thymidine incorporation at 1 to 3 uM after 24 hrs by beta counting; assay type: functional, cell-based
LN-229 [6] = test: Inhibition of DNA synthesis in human LN229 cells assessed as inhibition of tritiated thymidine incorporation at 1 to 3 uM after 24 hrs by beta counting; assay type: functional, cell-based
[7] = (§1) Cytotoxicity against human LN18 cells assessed as reduction in cell survival after 72 hrs by MTT assay; assay type: functional, cell-based; settings: LN-18, 72 h
LN-18 [8] = test: as §1; assay type: functional, cell-based
[9] = (§2) Cytotoxicity against human LN229 cells assessed as reduction in cell survival after 72 hrs by MTT assay; assay type: functional, cell-based; settings: LN-229, 72 h
LN-229 [10] = test: as §2; assay type: functional, cell-based
LN-18 [11] = test: Cytotoxicity against human LN18 cells at 2 to 4 uM after 72 hrs by MTT assay in presence of atorvastatin; assay type: functional, cell-based
[12] = Cytotoxicity against human HCEC cells assessed as cell death at 4 to 10 uM after 72 hrs by MTT assay in presence of atorvastatin; assay type: cell-based
LN-229 [13] = test: Cytotoxicity against human LN229 cells at 2 uM after 72 hrs by MTT assay in presence of atorvastatin; assay type: functional, cell-based
LN-229 [14] = test: Induction of [14C]acetate incorporation in human LN229 cells at 2 uM after 24 hrs by Beta-counting in presence of 2.5 to 10 uM atorvastatin; assay type: functional, cell-based
LN-18 [15] = test: Induction of [14C]acetate incorporation in human LN18 cells at 2 uM after 24 hrs by Beta-counting in presence of 2.5 to 10 uM atorvastatin; assay type: functional, cell-based
LN-229 [16] = test: Induction of [14C]acetate incorporation in human LN229 cells at 2 uM after 24 hrs by Beta-counting; assay type: functional, cell-based
LN-18 [17] = test: Induction of [14C]acetate incorporation in human LN18 cells at 2 uM after 24 hrs by Beta-counting; assay type: functional, cell-based
[18] = pampa, pH 6.5
Description: Permeability of compound at pH 6.5 assessed as compound binding to lipid membrane by PAMPA

Caco-2 = test: cells; settings: Homo sapiens, Caco-2, 72 h
Description: Cytotoxicity against human Caco2 cells after 72 hrs by MTT assay

HeLa = test: cells; settings: Homo sapiens, 72 h
Description: Cytotoxicity against human HeLa cells after 72 hrs by MTT assay

MCF7 = test: cells; settings: Homo sapiens, MCF7, 72 h
Description: Cytotoxicity against human MCF7 cells after 72 hrs by MTT assay

cells = settings: Homo sapiens, HCEC, 72 h
Description: Cytotoxicity against human HCEC cells assessed as reduction in cell survival after 72 hrs by MTT assay

physchem = settings: 1-octanol/TAPSO buffer, pH 7.4
Description: 1-Octanol-TAPSO buffer distribution coefficient, log D of the compound at pH 7.4 by shake-flask method

in vitro = settings: pampa, pH 6.5
Description: Apparent permeability of compound at pH 6.5 by PAMPA

For `C=CCN(C)CCCCCCOc1ccc(C(=O)c2ccc(Br)cc2)c(F)c1.O=C(O)/C=C/C(=O)O`, the Stability [1] was “Stable”, the Stability [2] was “Stable” and the IC50 (A549) was 11.3 µM. It also gave an IC50 (KB) of 2.88 µM, an IC50 (LNCaP) greater than 30 µM and an IC50 [3] of 5.26 µM. The IC50 [4] was greater than 30 µM, the IC50 (OVCAR) was greater than 30 µM and the inhibition (LN-18 [5]) was “Active”. For the same compound, the inhibition (LN-229 [6]) was “Active”, the IC50 [7] was 6.1 µM and the Activity (LN-18 [8]) was “Dose-dependent effect”. For the same compound, the IC50 [9] was 8.8 µM, the Activity (LN-229 [10]) was “Dose-dependent effect” and the Activity (LN-18 [11]) was “Active”. For the same compound, the Activity [12] was “Toxic”, the Activity (LN-229 [13]) was “Active” and the Activity (LN-229 [14]) was “inactive”. The Activity (LN-18 [15]) was “inactive”, the Activity (LN-229 [16]) was “Active” and the Activity (LN-18 [17]) was “Active”. For the same compound, the permeability [18] was 20%, the IC50 (Caco-2) was 2.99 µM and the IC50 (HeLa) was 2.89 µM. For the same compound, the IC50 (MCF7) was 6.77 µM, the IC50 (cells) was 3.8 µM and the logD (physchem) was 3.92. For the same compound, the Papp (in vitro) was 0.12 ×10⁻⁶ cm/s.

Reference: ChEMBL document CHEMBL2163299, “Cytotoxic effects of combination of oxidosqualene cyclase inhibitors with atorvastatin in human cancer cells” (J Med Chem, 2012)
